Laboratory results published in patent EP0322748B1, “Antibiotic NK86-0279, process for production of the same and application of the same” (NIPPON KAYAKU KABUSHIKI KAISHA, priority 1987, dated 1989).
In brackets after ≈: the same amount, converted by molar mass.

Tests used:
[1] = test system: human colonic cancer cells (SWlll6); test: growth-inhibitory effect on human colonic cancer cells, dye exclusion method; assay type: cell-based
Experimental: The growth-inhibitory effects of the compound of the present invention on mouse colonic cancer cells (Colon 26) and human colonic cancer cells (SWlll6) were examined. A 96-well plate was inoculated with mouse colonic cancer cells at a ratio of 1.5 x 10³ cells per well, while another 96-well plate was inoculated with human colonic cancer cells at a ratio of 3.0 x 10³ per well. These cells were incubated in an incubator at 37°C under 5 % CO₂ for 24 hours. Then the compound of the present invention was added thereto at various concentrations. Cells in each well were counted by the dye exclusion method 65 hours and 96 hours after the addition to thereby evaluate the growth-inhibitory effect of the test compound on the mouse colonic cancer cells and that on the human colonic cancer cells.

[2] = test system: cancer of the mouse colon (colon 26); test: anti-cancer action against grafted mouse colon cancer, prolongation of life; assay type: in vivo, BALB/c mouse
Text: The anti-cancer action of the compound of the present invention against the cancer of the mouse colon (colon 26) was examined. A cancer debris of mouse colon having an area of 2 mm³ was grafted into a subcutaneous portion of the left body side of a 6 week-old male BALB/c mouse, and the compound of the present invention was intraperitoneally administered to the mouse in various concentrations every day from the next day of the graft once a day for 9 days. The general conditions of the mouse were observed every day after the initiation of the administration. The percentage prolongation of life (T/C) of the mouse with respect to the compound of the present invention was determined from the ratio of the average survival time on the groups of administration of the compound of the present invention relative to that on the control group.

[3] = test system: mouse malignant melanoma (B16 melanotic melanoma); test: in-vivo test by peroral administration against mouse malignant melanoma, tumor volume; design: species or system C57BL/6 mouse
Text: The anti-cancer action of the compound of the present invention against mouse malignant melanoma (B16 melanotic melanoma) was examined. 5 x 10⁵ mouse malignant melanoma cells were inoculated into a subcutaneous portion of the right body side of a 6 week-old male C57BL/6 mouse, and the compound of the present invention was perorally administered to the mouse in various concentrations every day from the next day or from 7 days after the inoculation once a day for 5 days. On the 11 days after the inoculation, the minor axis and the major axis of the tumor were measured, and the volume of the tumor was determined by using the following equation: (minor axis)² x […] [formula] . Then, the percentage inhibition of proliferation of each tumor with respect to the compound of the present invention was determined from the ratio of the volume of the tumor on the groups of administration of the compound of the present invention relative to that on the control group.

[4] = test system: vascularization by the Ehrlich ascites tumor cells crude extract; test: vascularization-inhibitory effect, corneal assay; assay type: in vivo; details: slow-releasing pellet in rabbit cornea, compared with a control group
Experimental: The vascularization-inhibitory effect of the compound of the present invention was examined by corneal assay reported by M.A. Gimbrone et al. (J. National Cancer Inst., 52, 413 (1974)). Namely, the center of the cornea of the eye of a rabbit was incised with a knife at a length of approximately 2 mm to thereby form a pouch. Then a slow-releasing pellet containing 100 µg of a crude extract of Ehrlich ascites tumor cells, which had been preliminarily prepared according to a method proposed by R. Langer et al. (Nature, 263, 797 […]), was introduced into the pouch. Further another slow-releasing pellet containing 0.3 to 81 µg of the compound of the present invention was introduced thereinto so as to contact these pellets with each other. Then the degree of vascularization was observed four, six, eight and ten days after the introduction.

[5] = test system: two-spotted spider mite acarids (a Kelthane-resistant species); test: insecticidal action, mortality rate of spider mites; assay type: in vivo; details: Tetranychus urticae, 48 h, Imagos of two-spotted spider mite, after 2 days
Experimental: The insecticidal action of the compound of the present invention was examined by the following method. • (1) An imago of two-spotted spider mite acarids (a Kelthane-resistant species) was used as a test vermin, and the mortality rate thereof was assayed according to an ordinary method (described on page 327 of "Noyaku Seibutsu Kenteiho" edited by Toyoji Hosotsuji). Specifically, a solution of the compound of the present invention in acetone (0.1 %) was added to 0.5 ml of an aqueous sucrose solution (1 %) to have a predetermined concentration. Ten two-spotted spider mite acarids were released in a vessel (200-ml beaker), and the vessel was covered with a paraffin film. The agent solution prepared above was put on the paraffin film, and another praffin film was put thereon. The beaker was allowed to stand in a thermostatic chamber (20 ± 1°C) for a predetermined period of time, and the life and death of the test vermin was investigated. • (2) A larva of mosquito culices (a sensitive species) was used as a test vermin, and the mortality rate thereof was assayed according to an ordinary method (described on page 109 of "Noyaku Jikkenho I, Sacchuzaihen" published by Soft Science, Inc.). Specifically, 10 ml of well water was placed in a vessel (15-ml Schale), and 5 larvae of mosquito culices (the third stage) were released in the vessel. A solution of the compound of the present invention in acetone (0.1 %) was added thereto so as to have a predetermined concentration. The vessel was allowed to stand in a thermostatic chamber (26 ± 1°C) for a predetermined period of time, and the life and death of the test vermin was investigated.

solubility = assay type: physicochemical

SMILES: CCC1C=CC=CCC(C)C(O)C(C)(O)C(=O)C(C)C(O)C(C)C(=O)C(C)C(O)C(C)C=CC(=O)OC2C(C)C(CC1)OC1(OC(CC(C)O)C(C)CC1=O)C2CC (centres unmarked) [NK86-0279]
- inhibition at 0.0061 µg/mL ([1]; Homo sapiens, SW 1116, SWlll6, 0.0061 µg/ml, read-out: Growth-inhibitory ratio): 33.3%
- inhibition at 0.024 µg/mL ([1]; Homo sapiens, SW 1116, SWlll6, 0.024 µg/ml, read-out: Growth-inhibitory ratio): 51.7%
- inhibition at 0.098 µg/mL ([1]; Homo sapiens, SW 1116, SWlll6, 0.098 µg/ml, read-out: Growth-inhibitory ratio): 54.6%
- inhibition at 0.39 µg/mL ([1]; Homo sapiens, SW 1116, SWlll6, 0.39 µg/ml, read-out: Growth-inhibitory ratio): 53.5%
- inhibition at 1.56 µg/mL ([1]; Homo sapiens, SW 1116, SWlll6, 1.56 µg/ml, read-out: Growth-inhibitory ratio): 52.2%
- inhibition at 6.25 µg/mL ([1]; Homo sapiens, SW 1116, SWlll6, 6.25 µg/ml, read-out: Growth-inhibitory ratio): 80.8%
- inhibition at 25 µg/mL ([1]; Homo sapiens, SW 1116, SWlll6, 25 µg/ml, read-out: Growth-inhibitory ratio): 91.9%
- inhibition at 100 µg/mL ([1]; Homo sapiens, SW 1116, SWlll6, 100 µg/ml, read-out: Growth-inhibitory ratio): 90.7%
- IC50 ([1]; human colonic cancer cells (SWlll6), read-out: IC₅₀): 0.021 µg/mL (≈ 0.0256 µM)
- T/C (percentage prolongation of life) ([2]; 0.063 mg/kg intraperitoneally once a day for 9 days): 136%
- T/C (percentage prolongation of life) ([2]; 0.125 mg/kg intraperitoneally once a day for 9 days): 130%
- T/C (percentage prolongation of life) ([2]; 0.250 mg/kg intraperitoneally once a day for 9 days): 153%
- T/C (percentage prolongation of life) ([2]; 0.500 mg/kg intraperitoneally once a day for 9 days): 143%
- Growth-inhibitory ratio (tumor volume) ([3]; 0.5 mg/kg perorally once a day for 5 days, administered from 7 days after the inoculation): 44.7%
- Growth-inhibitory ratio (tumor volume) ([3]; 0.5 mg/kg perorally once a day for 5 days, administered from the next day of the inoculation): 90.5%
- Growth-inhibitory ratio (tumor volume) ([3]; 1.0 mg/kg perorally once a day for 5 days, administered from 7 days after the inoculation): 72.3%
- Growth-inhibitory ratio (tumor volume) ([3]; 1.0 mg/kg perorally once a day for 5 days, administered from the next day of the inoculation): 94.6%
- Growth-inhibitory ratio (tumor volume) ([3]; 2.0 mg/kg perorally once a day for 5 days, administered from 7 days after the inoculation): 57.4%
- Growth-inhibitory ratio (tumor volume) ([3]; 2.0 mg/kg perorally once a day for 5 days, administered from the next day of the inoculation): 69.5%
- Growth-inhibitory ratio (tumor volume) ([3]; 4.0 mg/kg perorally once a day for 5 days, administered from 7 days after the inoculation): 75.5%
- Growth-inhibitory ratio (tumor volume) ([3]; 4.0 mg/kg perorally once a day for 5 days, administered from the next day of the inoculation): 64.5%
- Growth-inhibitory ratio (tumor volume) ([3]; 8.0 mg/kg perorally once a day for 5 days, administered from 7 days after the inoculation): 67.0%
- Growth-inhibitory ratio (tumor volume) ([3]; 8.0 mg/kg perorally once a day for 5 days, administered from the next day of the inoculation): 66.0%
- degree of vascularization ([4]; 1 µg or above): significantly retarded till the fourth day
- degree of vascularization ([4]; 1.7 µg or above): till the eighth day
- mortality at 1 ppm ([5]; 1 ppm): 100%
- mortality at 10 ppm ([5]; 10 ppm): 100%
- mortality at 100 ppm ([5]; 100 ppm): 100%
- solubility (solubility; in hexane): hardly soluble
- solubility (solubility; in methanol, acetone, ethyl acetate and dimethyl sulfoxide): soluble
- solubility (solubility; in organic solvents such as methanol, acetone, ethyl acetate and ethanol): soluble
- solubility (solubility; in water): hardly soluble
